Data set [1] concerns the target T1, Thyroid hormone receptor beta (Homo sapiens, UniProt P10828).
T1 sequence (P10828 whole entry): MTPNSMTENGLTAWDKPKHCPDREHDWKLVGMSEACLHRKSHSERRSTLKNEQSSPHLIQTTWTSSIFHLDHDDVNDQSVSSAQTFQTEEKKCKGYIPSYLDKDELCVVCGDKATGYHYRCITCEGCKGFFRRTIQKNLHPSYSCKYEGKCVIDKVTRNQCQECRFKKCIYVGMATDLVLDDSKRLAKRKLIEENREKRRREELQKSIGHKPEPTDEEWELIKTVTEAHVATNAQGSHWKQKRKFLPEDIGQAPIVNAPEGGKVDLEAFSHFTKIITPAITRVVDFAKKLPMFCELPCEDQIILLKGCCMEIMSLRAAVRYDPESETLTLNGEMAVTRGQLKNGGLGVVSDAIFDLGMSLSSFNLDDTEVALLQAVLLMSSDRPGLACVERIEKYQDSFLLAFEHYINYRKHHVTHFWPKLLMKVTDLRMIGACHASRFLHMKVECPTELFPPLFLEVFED
As to the kind of experiment: Displacement of [125I]-L-3,5,3'-triiodothyronine from human TRbeta expressed in human Hela cell lysate measured after overnight incubation by competition binding assays. It counts as cell-free. In general terms: In a radioligand displacement assay an active substance lowers the binding of a labelled ligand.

Data set [2] deals with T2, Thyroid hormone receptor alpha (Homo sapiens, UniProt P10827).
T2 sequence (P10827 whole entry): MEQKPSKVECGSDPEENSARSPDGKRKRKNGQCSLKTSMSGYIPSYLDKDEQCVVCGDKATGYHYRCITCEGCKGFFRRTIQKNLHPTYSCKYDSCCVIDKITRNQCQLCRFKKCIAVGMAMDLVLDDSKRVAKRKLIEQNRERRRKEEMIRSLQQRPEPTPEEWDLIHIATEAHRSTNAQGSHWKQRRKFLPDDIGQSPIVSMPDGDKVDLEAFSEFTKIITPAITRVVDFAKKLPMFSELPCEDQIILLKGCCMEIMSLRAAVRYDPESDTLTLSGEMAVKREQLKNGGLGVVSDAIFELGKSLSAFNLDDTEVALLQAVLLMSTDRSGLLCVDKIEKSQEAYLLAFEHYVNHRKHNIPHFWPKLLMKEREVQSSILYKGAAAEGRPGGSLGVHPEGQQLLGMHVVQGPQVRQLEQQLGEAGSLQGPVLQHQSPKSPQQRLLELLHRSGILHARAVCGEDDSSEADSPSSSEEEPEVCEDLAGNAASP
As to the kind of experiment: Displacement of [125I]-L-3,5,3'-triiodothyronine from human TRalpha expressed in human Hela cell lysate measured after overnight incubation by competition binding assays. It is filed as cell-free.

Data set [3] has as its target T2, Thyroid hormone receptor alpha. As to the kind of experiment: Agonist activity at TRalpha (unknown origin) expressed in human HuH7 cells after 24 hrs by Gal4 CTF cell-based assay. Also on record: species or system Huh-7.
In data set [4] the target is T1, Thyroid hormone receptor beta. Put plainly: Agonist activity at TRbeta (unknown origin) expressed in human HuH7 cells after 24 hrs by Gal4 CTF cell-based assay. Also on record: species or system Huh-7.
Data set [5] deals with Rattus norvegicus. Put plainly: Increase in HDL level in fructose-fed Sprague-Dawley rat model of dyslipidemia at 1 mg/kg, po qd through oral gavage by size exclusion chromatography relative to vehicle-treated control. It counts as functional.
Data set [6] deals with Rattus norvegicus. As to the kind of experiment: Increase in HDL level in fructose-fed Sprague-Dawley rat model of dyslipidemia at 10 mg/kg, po qd through oral gavage by size exclusion chromatography relative to vehicle-treated control. It is filed as functional. For orientation: Size exclusion chromatography separates by hydrodynamic size, large species first.
The test system of data set [7] is Rattus norvegicus. Put plainly: Decrease in triglyceride level in fructose-fed Sprague-Dawley rat model of dyslipidemia at 3 mg/kg, po qd through oral gavage by size exclusion chromatography (Rvb =296 +/- 20 mg/dL). It counts as functional.
Data set [8] relates to Rattus norvegicus. Put plainly: Toxicity in fructose-fed Sprague-Dawley rat model of dyslipidemia assessed as effect on food intake at 0.1 to 10 mg/kg, po qd through oral gavage. Also on record: dose 0.1-10 mg/kg, route oral. The conditions noted are these: in vivo. It counts as organism-based.
Data set [9] concerns Rattus norvegicus. Put plainly: Decrease in triglyceride level in fructose-fed Sprague-Dawley rat model of dyslipidemia at 1 mg/kg, po qd through oral gavage by size exclusion chromatography (Rvb =296 +/- 20 mg/dL). It counts as functional.
The subject of data set [10] is Rattus norvegicus. Put plainly: Increase in HDL level in fructose-fed Sprague-Dawley rat model of dyslipidemia at 3 mg/kg, po qd through oral gavage by size exclusion chromatography relative to vehicle-treated control. It is filed as functional.
Data set [11] concerns Rattus norvegicus. As to the kind of experiment: Increase in HDL level in fructose-fed Sprague-Dawley rat model of dyslipidemia at 0.3 mg/kg, po qd through oral gavage by size exclusion chromatography relative to vehicle-treated control. It is filed as functional.
For data set [12], the system named is Rattus norvegicus. Put plainly: Decrease in triglyceride level in fructose-fed Sprague-Dawley rat model of dyslipidemia at 0.3 mg/kg, po qd through oral gavage by size exclusion chromatography (Rvb =296 +/- 20 mg/dL). It counts as functional.
In data set [13] the test system is Rattus norvegicus. Put plainly: Increase in HDL level in fructose-fed Sprague-Dawley rat model of dyslipidemia at 0.1 mg/kg, po qd through oral gavage by size exclusion chromatography relative to vehicle-treated control. It counts as functional.
For data set [14], the system named is Rattus norvegicus. Put plainly: Decrease in triglyceride level in fructose-fed Sprague-Dawley rat model of dyslipidemia at 10 mg/kg, po qd through oral gavage by size exclusion chromatography (Rvb =296 +/- 20 mg/dL). It counts as functional.
Data set [15] deals with Rattus norvegicus. As to the kind of experiment: Decrease in triglyceride level in fructose-fed Sprague-Dawley rat model of dyslipidemia at 0.1 mg/kg, po qd through oral gavage by size exclusion chromatography (Rvb =296 +/- 20 mg/dL). It is filed as functional.

The structures appear in SMILES notation.

By Ki is commonly meant the dissociation constant of the complex between target and ligand, obtained from inhibition or displacement. With `Cc1cn(Cc2ccc(O)c(CC3CCCCC3)c2)c2ccc(OCC(=O)O)cc12`, the Ki in [1] came out at 1.11 nM; in data set [2], 46.6 nM.
Turning to `Cc1cn(Cc2ccc(O)c(C3CCCC3)c2)c2ccc(OCC(=O)O)cc12`, the figures for the Ki in data set [1] and in [2] were 0.64 nM and 32.3 nM, respectively.
With `Cc1cn(Cc2ccc(O)c(C(C)(C)C)c2)c2ccc(OCC(=O)O)cc12`, the Ki is 0.3 nM in data set [1] and 9.98 nM in data set [2].
In the case of `Cc1cn(Cc2ccc(O)c(C(C)C)c2)c2c(C)cc(OCC(=O)O)cc12`, the Ki came to 0.18 nM in data set [1] and 2.77 nM in data set [2].
`CC(C)c1cc(Cn2ccc3cc(OCC(=O)O)ccc32)ccc1O`: the Ki stood at 1.04 nM in [1] and 13.5 nM in data set [2].
In general, EC50 refers to the midpoint of the concentration-response curve. A lower EC50 goes with greater potency. Consider `Cc1cn(Cc2ccc(O)c(Cc3ccccc3)c2)c2ccc(OCC(=O)O)cc12`, for which the EC50 in data set [3] turned out to be 2470 nM; in data set [4], 406 nM. The Ki in data set [1] is 0.54 nM; in data set [2] it was 36.5 nM.
For the compound `Cc1cc2cc(OCC(=O)O)cc(Cl)c2n1Cc1ccc(O)c(C(C)C)c1`, the figures for the Ki in data set [1] and in data set [2] were 0.04 nM and 0.38 nM, respectively.
On to `Cc1cc2cc(OCC(=O)O)ccc2n1Cc1ccc(O)c(C(C)C)c1`, for which the figures for the inhibition constant (Ki) in data set [1] and in [2] were 1.12 nM and 16.3 nM, respectively.
For `Cc1cc(OCC(=O)O)cc2cc(C)n(Cc3ccc(O)c(C(C)C)c3)c12` the same measures were 0.14 nM and 2.05 nM.
Taken in the same sequence, the figures for `Cc1cn(Cc2ccc(O)c(C(C)C)c2)c2c(Cl)cc(OCC(=O)O)cc12` were 0.09 nM and 0.51 nM.
On to `Cc1cn(Cc2ccc(O)c(C(C)C)c2)c2ccc(OCC(=O)O)cc12`, for which the Activity in the data set with Rattus norvegicus [5] is 55%; in the data set with Rattus norvegicus [6] it was 35%; with Rattus norvegicus [7], 149 mg/dL; in the data set with Rattus norvegicus [8] it was “Non-toxic”; in the data set on Rattus norvegicus [9], 177 mg/dL; in the data set with Rattus norvegicus [10], 42%. Also, the Activity with Rattus norvegicus [11] stood at 39%; with Rattus norvegicus [12], 214 mg/dL; with Rattus norvegicus [13], 22%; in the data set with Rattus norvegicus [14] it was 106 mg/dL; in the data set on Rattus norvegicus [15], 204 mg/dL. For the same compound, the figures for the inhibition constant (Ki) in data set [1] and in data set [2] were 0.38 nM and 7.74 nM, respectively.
Regarding `CC(C)c1cc(Cn2ccc3cc(OCC(=O)O)cc(Cl)c32)ccc1O`, the Ki was 0.07 nM in data set [1] and 0.35 nM in data set [2].
Taken in the same sequence, the figures for `Cc1cn(Cc2ccc(O)c(-c3ccccc3)c2)c2ccc(OCC(=O)O)cc12` were 3.14 nM and 89.9 nM.
Consider `Cc1cn(Cc2ccc(O)c(C3CCCCC3)c2)c2ccc(OCC(=O)O)cc12`, for which the Ki in data set [1] amounted to 8.04 nM; in data set [2] it was 200 nM.
For the compound `Cc1cc(OCC(=O)O)cc2ccn(Cc3ccc(O)c(C(C)C)c3)c12`, the Ki in data set [1] stood at 0.26 nM; in data set [2] it was 1.09 nM.
